How the values were obtained:
Type in all cases: biochemical
[1] = system: Factor IX deficient plasma; assay: relative coagulant activity of factor IX proteins (zymogens); settings: for relative coagulant activity: factor IX proteins before activation, IXNP = 100%
Description: The following reagents were used. Benzoyl-Ile-Glu-Gly-Arg-p-nitroanilide (SEQ ID NO: 17) (S-2222) was purchased from Helena Laboratories. Dansyl-Glu-Gly-Arg-chloromethyl ketone (DEGR-ck) was obtained from Calbiochem. Phosphatidylcholine, phosphatidylserine, recombinant hirudin, and fatty acid free bovine serum albumin (BSA) were obtained from Sigma Chemical Co. Factor IX and factor VIII deficient plasmas were purchased from George King Biomedicals and aPTT reagent was obtained from Diagnostica Stago. Normal human plasma factor IX (IXNP) and factor X were isolated as described in Bajaj and Birktoft, 1993, Methods Enzymol. 222, 96–128, and factor Xa was prepared as described in Bajaj et al., 1981, Prep. Biochem. 11, 397–412. Purified human factor XIa, protein C, activated protein C, and α-thrombin (IIa) were purchased from Enzyme Research Laboratories (South Bend, Ind.). Recombinant human tissue factor of aa 1–243 containing the transmembrane domain was generously provided by Genentech Inc. (South San Francisco, Calif.) and reconstituted as described in Sabharwal et al., 1995, J. Biol. Chem. 270, 15523–15530. Phosphatidylcholine-phosphatidylserine vesicles (75% phosphatidylcholine, 25% phosphatidylserine) were prepared by the method of Husten et al., 1987, J. Biol. Chem. 262, 12953–12966 as outlined in Sabharwal et al (Id.). Recombinant human factor VIIa was a generous gift of Novo-Nordisk (Copenhagen). Purified human factor VIII was obtained from Dr. Leon Hoyer (American Red Cross, Rockville, Md.). The preparation was free of all other coagulation factors and contained human albumin as a stabilizing agent. Purification of a mouse monoclonal antibody (mAb) that inhibits the interaction of factor IXa with factor VIIIa was as described in Bajaj et al., 1985, J. Biol. Chem. 260:11574–11580. […]

factor VIIIa [2] = biological target: T1, factor VIIIa (Homo sapiens, UniProt P00451); assay: inhibition of Xa generation by active site-blocked (DEGR) IXa proteins, presence of phospholipid (Kd,app for VIIIa); settings: presence of phospholipid
T1 construct: purchased Dr. Leon Hoyer (American Red Cross, Rockville, Md.)
T1 sequence (P00451 20-759 limits assumed): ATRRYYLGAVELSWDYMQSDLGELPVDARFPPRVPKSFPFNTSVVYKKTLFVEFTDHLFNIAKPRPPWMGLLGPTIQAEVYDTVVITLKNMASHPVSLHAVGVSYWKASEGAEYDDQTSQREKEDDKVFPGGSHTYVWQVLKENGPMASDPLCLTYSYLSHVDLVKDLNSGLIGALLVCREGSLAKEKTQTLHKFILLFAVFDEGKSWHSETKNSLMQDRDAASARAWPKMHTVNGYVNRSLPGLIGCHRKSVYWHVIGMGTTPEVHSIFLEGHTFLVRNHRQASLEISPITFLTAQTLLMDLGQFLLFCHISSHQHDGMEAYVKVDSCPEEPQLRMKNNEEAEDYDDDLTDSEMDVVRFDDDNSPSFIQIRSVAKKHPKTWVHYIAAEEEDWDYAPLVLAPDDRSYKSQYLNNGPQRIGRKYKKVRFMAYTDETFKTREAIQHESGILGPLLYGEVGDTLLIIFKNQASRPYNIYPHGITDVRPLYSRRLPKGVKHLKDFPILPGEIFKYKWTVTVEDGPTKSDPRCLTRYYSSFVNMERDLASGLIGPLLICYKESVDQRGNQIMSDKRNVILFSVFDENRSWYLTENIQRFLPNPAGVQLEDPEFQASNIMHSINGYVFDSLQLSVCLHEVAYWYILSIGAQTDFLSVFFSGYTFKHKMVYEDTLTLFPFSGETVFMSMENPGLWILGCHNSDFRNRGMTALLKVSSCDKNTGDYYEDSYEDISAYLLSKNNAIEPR
T1 sequence (P00451 1668-2351 limits assumed): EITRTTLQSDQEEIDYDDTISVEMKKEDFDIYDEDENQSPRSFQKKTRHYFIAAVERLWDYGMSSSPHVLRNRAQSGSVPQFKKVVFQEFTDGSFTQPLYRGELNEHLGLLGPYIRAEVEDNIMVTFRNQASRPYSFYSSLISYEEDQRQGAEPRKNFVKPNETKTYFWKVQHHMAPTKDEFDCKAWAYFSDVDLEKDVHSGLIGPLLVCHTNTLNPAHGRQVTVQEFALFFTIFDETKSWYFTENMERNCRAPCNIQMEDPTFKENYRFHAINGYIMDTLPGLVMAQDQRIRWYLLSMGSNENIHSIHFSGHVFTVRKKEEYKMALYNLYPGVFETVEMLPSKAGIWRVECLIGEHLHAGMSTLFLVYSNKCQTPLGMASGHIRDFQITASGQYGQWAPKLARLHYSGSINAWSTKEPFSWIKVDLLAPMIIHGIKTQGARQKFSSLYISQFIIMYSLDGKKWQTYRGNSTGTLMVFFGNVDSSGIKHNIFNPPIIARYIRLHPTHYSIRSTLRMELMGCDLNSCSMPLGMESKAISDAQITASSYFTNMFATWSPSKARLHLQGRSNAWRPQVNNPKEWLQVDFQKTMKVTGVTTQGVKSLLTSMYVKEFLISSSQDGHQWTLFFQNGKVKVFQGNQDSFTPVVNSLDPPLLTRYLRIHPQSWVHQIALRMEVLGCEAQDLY
Description: (§1) Apparent Kds of factor VIIIa binding to various active site-blocked factor IXa proteins were determined from inhibition experiments as detailed in Mathur et al., 1997, supra. […] Reactions were carried out for 2 min and the rates of factor X activation were measured as outlined above.
(§2) Various DEGR-ck-inhibited factor IXa proteins were prepared for these experiments as follows. IXNP, IXWT, and each mutant factor IX at 200 μg/ml was activated by factor XIa (2 μg/ml) for 90 min. in TBS, pH 7.4 (0.05 M Tris, 0.15 M NaCl, pH 7.4) containing 5 mM Ca^2+.
(§3) Enzymol. 74, 481–508 given below:
(§4) [formula] where y is the rate of Xa formation in the presence of a given concentration of DEGR-IXa protein represented by x, a is the maximum rate of Xa formation in the absence of DEGR-IXa, and s is the slope factor. Each point was weighted equally and the data were fitted to Equation 1 using the nonlinear regression analysis program obtained from Erithacus Software (GraFit). […] To obtain the Kd,app values for the interaction of DEGR-IXa proteins with factor VIIIa, the following equation was used, as described by Cheng and Prusoff, 1973, Biochem. Pharmacol. 22, 3099–3108 and further discussed by Craig, 1993, Trends Pharmacol. Sci. 6, 68–71.

factor VIIIa [3] = biological target: T1, factor VIIIa; assay: inhibition of Xa generation by active site-blocked (DEGR) IXa proteins, absence of phospholipid (Kd,app for VIIIa); settings: absence of phospholipid
Description: as §1, §2, §3, §4

factor X [4] = biological target: T2, factor X (Homo sapiens, UniProt P00742); assay: factor X activation in complete intrinsic Tenase system (IXa, Ca2+, phospholipid, VIIIa); design: Normal human plasma factor IX (IXNP) and factor X were isolated as described in Bajaj and Birktoft; from tissue; host or cells: human plasma (factor X); factor VIII obtained from Dr. Leon Hoyer, American Red Cross; settings: phospholipid present; for rate of factor X activation at increased VIIIa: VIIIa increased from 70 pM to 14 nM
Description: (§5) The ability of each activated mutant to activate factor X in the presence and absence of phospholipid and factor VIIIa was determined as follows. The activation was carried out at 37° C. in a 50 μl reaction volume, in TBS/BSA pH 7.4, for various time periods. At the end of the incubation time period, each reaction mixture received 1 μl of 0.5 M EDTA to stop further generation of factor Xa. A 40 μL aliquot was then added to 0.1 ml quartz cuvette containing S-2222 in 75 μL of TBS/BSA, pH 7.4. The final concentration of S-2222 was 100 μM. The p-nitroaniline release was measured continuously (ΔA405/min) for up to 20 min (Sabharwal et al., 1995 supra; Sabharwal et al., 1997, supra). Factor Xa generated was calculated from a standard curve constructed using factor Xa prepared from insolubilized Russell's viper venom.
(§6) Factor X activation measurements were made under four experimental regimes. In one, Ca^2+ and phospholipid were present. In this system activation was carried out for 5–15 minutes and the concentration of each IXa protein was 20 nM, phospholipid was 25 μM, and factor X was 100 nM. In the second regime, Ca^2+, phospholipid and factor VIIIa were present. […] In the third regime, only Ca^2+ was present. Here, activation was carried out for 2–20 min and concentration of each IXa protein was 400 nM and factor X was 1 μM. Finally, in the fourth regime, Ca^2+ and VIIIa were present. Here, activation was carried out for 15–120 sec and the concentration of each IXa protein was 2 μM, VIIIa was 14 nM, and factor X was 400 nM.
(§7) In all of the above factor X activation experiments, the incubation times chosen were those in which the factor Xa generated was always less than 10 nM. This precautionary measure was taken to prevent activation of factor X by the generated factor Xa (see, e.g., Link. and Castellino, 1982, Arch Biochem. Biophys. 215, 215–221). Further, in those incubation mixtures which contained […], control experiments were also performed in which factor VIIIa was omitted. […] In the presence of factor VIIIa, 10 μM phospholipid was used based upon previous observations (Mathur et al., 1997, supra; van Dieijen et al., 1981, J. Biol. Chem. 256, 3433–3442). The concentrations of factor X selected for each set of reaction conditions are those which are below or at the Km values (van Dieijen et al., supra; Fay and Koshibu, 1998, J Biol. Chem. 273, 19049–19054). In this region of the Michaelis-Menton curve, the rate of formation of factor Xa is proportional to the substrate factor X and therefore to the affinity of the factor IXa enzyme for factor X.
Next, the activation of factor X in a complete intrinsic Tenase system (IXa, Ca^2+, phospholipid, VIIIa) was studied.

[5] = system: Factor IX deficient plasma; assay: coagulant activity of XIa-activated IXa proteins
factor X [6] = biological target: T2, factor X; assay: factor X activation by IXa proteins, Ca2+ and VIIIa, no phospholipid; design: Normal human plasma factor IX (IXNP) and factor X were isolated as described in Bajaj and Birktoft; from tissue; host or cells: human plasma (factor X); factor VIII obtained from Dr. Leon Hoyer, American Red Cross; settings: 14 nM VIIIa, 400 nM factor X
Description: as §5, §6, §7

T2 sequence (P00742 183-488 limits assumed, one chain of several): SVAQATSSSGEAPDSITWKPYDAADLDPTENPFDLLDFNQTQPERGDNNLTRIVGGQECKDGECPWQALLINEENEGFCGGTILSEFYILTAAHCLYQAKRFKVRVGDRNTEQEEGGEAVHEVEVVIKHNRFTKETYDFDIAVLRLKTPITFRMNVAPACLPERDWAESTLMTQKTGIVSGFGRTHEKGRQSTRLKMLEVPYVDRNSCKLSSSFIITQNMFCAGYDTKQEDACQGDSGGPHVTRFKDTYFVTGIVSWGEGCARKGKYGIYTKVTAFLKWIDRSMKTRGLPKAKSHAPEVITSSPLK
T2 sequence (P00742 41-179 limits assumed, one chain of several): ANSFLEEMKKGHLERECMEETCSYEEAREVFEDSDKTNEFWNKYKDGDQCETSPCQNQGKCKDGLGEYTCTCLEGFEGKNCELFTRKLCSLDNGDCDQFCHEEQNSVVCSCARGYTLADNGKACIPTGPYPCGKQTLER

Substance | relative coagulant activity [1] | coagulant activity as compared to IXaNP [5] | further results
IXR333L: recombinant factor IX point mutant R333L | 0.3% |  | 
IXL3301: recombinant factor IX point mutant L330I in helix-330 of protease domain | ~8% |  | 
protein C: Purified human protein C, control protein [reference compound] |  |  | competition with IXa in binding to VIIIa / interaction with VIIIa (factor VIIIa [2]): neither protein C nor DEGR-activated protein C competed with IXa in binding to VIIIa; competition with IXa in binding to VIIIa / interaction with VIIIa (factor VIIIa [3]): neither protein C nor DEGR-activated protein C competed with IXa in binding to VIIIa
IXahelixVII: activated factor IX chimera with helix 330–338 replaced by factor VII residues |  | not measurable | rate of factor X activation at increased VIIIa (factor X [4]): not measurable
IXL337I: recombinant factor IX point mutant L337I | ~1% |  | 
IXaL330I: activated factor IX mutant L330I |  | ~7% | X-activation rate, PL-minus system (factor X [6]): 0.94 ± 0.03 nM/min; X-activation rate, PL-plus system (factor X [4]; 70 pM VIIIa, 0.5 nM IXa, 15 nM X): 0.95 ± 0.07 nM/min
IXR333Q: recombinant factor IX point mutant R333Q | ~0.5% |  | 
IXaR333L: activated factor IX mutant R333L |  | ~0.4% | rate of factor X activation at increased VIIIa (factor X [4]): ~2.7 nM/min
IXD332Y: recombinant factor IX point mutant D332Y | ~2% |  | 
IXaWT: factor XIa-activated recombinant wild-type factor IX [reference compound] |  | ~95% | 
IXWT: recombinant wild-type factor IX [reference compound] | ~90% |  | 
IXT335A: recombinant factor IX point mutant T335A | ~40% |  | 
IXaL337I: activated factor IX mutant L337I |  | ~0.8% | rate of factor X activation at increased VIIIa (factor X [4]): ~3.2 nM/min
IXNP: Normal human plasma factor IX | 100% |  | coagulant activity (specific) ([1]; plasma factor IX): 180±10 units/mg
IXaD332Y: activated factor IX mutant D332Y |  | ~2% | rate of factor X activation at increased VIIIa (factor X [4]): ~4.1 nM/min
IXaR333Q: activated factor IX mutant R333Q |  | ~0.6% | rate of factor X activation at increased VIIIa (factor X [4]): ~2.4 nM/min
IXaR338Q: activated factor IX mutant R338Q |  | ~80% | X-activation rate, PL-minus system (factor X [6]): 2.22 ± 0.15 nM/min
IXR338Q: recombinant factor IX point mutant R338Q | ~65% |  | 

Reference: patent publication US7109170B2, “Region of factor IXa protease domain that interacts with factor VIIIa and methods therefor” (Saint Louis University, priority 1999, dated 2006)
